Measured values published in patent US7709507B2 (Allergan, Inc., priority 2006, dated 2010).
pEC50: −log10 of the molar value.

Columns and labels:
Type in all cases: cell-based
alpha2C receptor = molecular target: T1, alpha2C receptor (Homo sapiens, UniProt P18825); assay: Receptor Selection and Amplification Technology (RSAT) assay, Alpha 2C; conditions: for Alpha 2C EC50 / pEC50: RSAT, transfected NIH-3T3 cells with Gq/i5, not active = at concentrations less than 10 micromolar; for pEC50: read-out: Alpha 2C EC50; for Alpha 2C IA (intrinsic activity): ratio of maximal effect to that of standard full agonist brimonidine (UK14304)
T1 construct: expressed in transfected cells; host or cells: NIH-3T3 cells
T1 sequence (P18825 1-462): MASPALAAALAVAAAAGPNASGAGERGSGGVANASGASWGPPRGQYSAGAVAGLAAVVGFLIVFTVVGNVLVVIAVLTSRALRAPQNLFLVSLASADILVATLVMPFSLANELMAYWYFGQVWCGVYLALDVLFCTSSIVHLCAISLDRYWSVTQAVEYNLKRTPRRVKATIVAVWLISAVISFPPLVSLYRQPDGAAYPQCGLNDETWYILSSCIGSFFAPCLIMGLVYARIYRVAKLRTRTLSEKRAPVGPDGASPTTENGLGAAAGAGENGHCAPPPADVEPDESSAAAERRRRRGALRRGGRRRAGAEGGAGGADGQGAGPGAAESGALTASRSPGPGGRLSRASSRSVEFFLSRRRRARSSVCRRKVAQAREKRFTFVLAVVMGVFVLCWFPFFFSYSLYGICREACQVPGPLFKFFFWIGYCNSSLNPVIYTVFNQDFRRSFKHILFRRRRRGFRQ
Experimental: (§1) Receptor Selection and Amplification Technology (RSAT) Assay
(§2) The RSAT assay measures a receptor-mediated loss of contact inhibition that results in selective proliferation of receptor-containing cells in a mixed population of confluent cells. The increase in cell number is assessed with an appropriate transfected marker gene such as β-galactosidase, the activity of which can be easily measured in a 96-well format. Receptors that activate the G protein, Gq, elicit this response. Alpha2 receptors, which normally couple to Gi, activate the RSAT response when coexpressed with a hybrid Gq protein that has a Gi receptor recognition domain, called Gq/i5.
(§3) NIH-3T3 cells are plated at a density of 2×10^6 cells in 15 cm dishes and maintained in Dulbecco's modified Eagle's medium supplemented with 10% calf serum. One day later, cells are cotransfected by calcium phosphate precipitation with mammalian expression plasmids encoding p-SV-β-galactosidase (5-10 μg), receptor (1-2 μg) and G protein (1-2 μg). 40 μg salmon sperm DNA may also be included in the transfection mixture. […] Cells are thawed and 100 μl added to 100 μl aliquots of various concentrations of drugs in triplicate in 96-well dishes. Incubations continue 72-96 hr at 37° C. After washing with phosphate-buffered saline, β-galactosidase enzyme activity is determined by adding 200 μl of the chromogenic substrate (consisting of 3.5 mM o-nitrophenyl-β-D-galactopyranoside and 0.5% nonidet P-40 in phosphate buffered saline), incubating overnight at 30° C. and measuring optical density at 420 nm. The absorbance is a measure of enzyme activity, which depends on cell number and reflects a receptor-mediated cell proliferation. The efficacy or intrinsic activity is calculated as a ratio of the maximal effect of the drug to the maximal effect of a standard full agonist for each receptor subtype. Brimonidine, also called UK14304, the chemical structure of which is shown below, is used as the standard agonist for the alpha2A, alpha2B and alpha2C receptors. The EC50 is the concentration at which the drug effect is half of its maximal effect.
(§4) EC50 values are nanomolar. NA stands for “not active” at concentrations less than 10 micromolar. IA stands for “intrinsic activity.”

alpha2B receptor = molecular target: T2, alpha2B receptor (Homo sapiens, UniProt P18089); assay: Receptor Selection and Amplification Technology (RSAT) assay, Alpha 2B; conditions: for pEC50: RSAT, transfected NIH-3T3 cells with Gq/i5, not active = at concentrations less than 10 micromolar, read-out: Alpha 2B EC50; for Alpha 2B IA (intrinsic activity): ratio of maximal effect to that of standard full agonist brimonidine (UK14304)
T2 construct: expressed in transfected cells; host or cells: NIH-3T3 cells
T2 sequence (P18089 1-450): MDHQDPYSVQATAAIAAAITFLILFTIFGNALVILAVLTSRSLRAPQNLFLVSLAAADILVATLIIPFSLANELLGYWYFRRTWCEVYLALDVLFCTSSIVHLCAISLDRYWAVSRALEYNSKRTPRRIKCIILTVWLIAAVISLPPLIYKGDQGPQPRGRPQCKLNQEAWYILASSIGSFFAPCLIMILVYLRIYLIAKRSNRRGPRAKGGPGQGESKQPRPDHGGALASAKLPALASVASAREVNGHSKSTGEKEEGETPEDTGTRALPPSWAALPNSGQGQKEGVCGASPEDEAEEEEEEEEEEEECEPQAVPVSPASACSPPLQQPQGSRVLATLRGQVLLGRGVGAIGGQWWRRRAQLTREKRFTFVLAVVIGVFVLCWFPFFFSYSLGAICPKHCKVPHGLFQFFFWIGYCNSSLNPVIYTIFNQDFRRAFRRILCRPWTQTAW
Experimental: as §1, §2
NIH-3T3 cells are plated at a density of 2×10^6 cells in 15 cm dishes and maintained in Dulbecco's modified Eagle's medium supplemented with 10% calf serum. One day later, cells are cotransfected by calcium phosphate precipitation with mammalian expression plasmids encoding p-SV-β-galactosidase (5-10 μg), receptor (1-2 μg) and G protein (1-2 μg). 40 μg salmon sperm DNA may also be included in the transfection mixture. Fresh media is added on the following day and 1-2 days later, cells are harvested and frozen in 50 assay aliquots. Cells are thawed and 100 μl added to 100 μl aliquots of various concentrations of drugs in triplicate in 96-well dishes. Incubations continue 72-96 hr at 37° C. After washing with phosphate-buffered saline, β-galactosidase enzyme activity is determined by adding 200 μl of the chromogenic substrate (consisting of 3.5 mM o-nitrophenyl-β-D-galactopyranoside and 0.5% nonidet P-40 in phosphate buffered saline), incubating overnight at 30° C. and measuring optical density at 420 nm. The absorbance is a measure of enzyme activity, which depends on cell number and reflects a receptor-mediated cell proliferation. The efficacy or intrinsic activity is calculated as a ratio of the maximal effect of the drug to the maximal effect of a standard full agonist for each receptor subtype. Brimonidine, also called UK14304, the chemical structure of which is shown below, is used as the standard agonist for the alpha2A, alpha2B and alpha2C receptors. The EC50 is the concentration at which the drug effect is half of its maximal effect.
The results of the RSAT assay with several exemplary compounds of the invention are disclosed in Table 1 above together with the chemical formulas of these exemplary compounds. EC50 values are nanomolar. NA stands for “not active” at concentrations less than 10 micromolar. IA stands for “intrinsic activity.”

alpha2A receptor = molecular target: T3, alpha2A receptor (Homo sapiens, UniProt P08913); assay: Receptor Selection and Amplification Technology (RSAT) assay, Alpha 2A; conditions: for Alpha 2A EC50 / pEC50: RSAT, transfected NIH-3T3 cells with Gq/i5, not active = at concentrations less than 10 micromolar; for pEC50: read-out: Alpha 2A EC50; for Alpha 2A IA (intrinsic activity): ratio of maximal effect to that of standard full agonist brimonidine (UK14304)
T3 construct: expressed in transfected cells; host or cells: NIH-3T3 cells
T3 sequence (P08913 1-465): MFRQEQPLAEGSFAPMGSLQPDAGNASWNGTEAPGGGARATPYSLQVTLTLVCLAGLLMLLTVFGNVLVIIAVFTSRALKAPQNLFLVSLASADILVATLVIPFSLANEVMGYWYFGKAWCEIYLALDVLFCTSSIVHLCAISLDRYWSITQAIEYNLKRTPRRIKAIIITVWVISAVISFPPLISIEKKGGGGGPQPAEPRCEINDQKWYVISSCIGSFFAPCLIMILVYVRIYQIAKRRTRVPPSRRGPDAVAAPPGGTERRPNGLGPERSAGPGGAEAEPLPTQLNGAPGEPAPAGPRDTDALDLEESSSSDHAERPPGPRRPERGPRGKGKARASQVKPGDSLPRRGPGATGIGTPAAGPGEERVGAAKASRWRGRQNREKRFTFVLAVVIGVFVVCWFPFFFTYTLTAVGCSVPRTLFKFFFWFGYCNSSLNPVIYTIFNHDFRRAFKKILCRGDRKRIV
Experimental: as §1, §2, §3, §4

Row | Structure (SMILES) | Alpha 2C EC50 (alpha2C receptor) | pEC50 (alpha2B receptor) | Alpha 2B IA (intrinsic activity) (alpha2B receptor) | Alpha 2A EC50 (alpha2A receptor) | pEC50 (alpha2C receptor) | Alpha 2C IA (intrinsic activity) (alpha2C receptor) | pEC50 (alpha2A receptor) | Alpha 2A IA (intrinsic activity) (alpha2A receptor)
1 | Cc1cccc(C(Cc2ccccc2F)NC(=O)NCCF)c1 (centres unmarked) | not active | 7.86 | 1.02 | not active | – | – | – | –
2 | O=C(NCCF)NC(Cc1cc(F)ccc1F)c1cccnc1 (centres unmarked) [1-[2-(2,5-difluoro-phenyl)-1-pyridin-3-yl-ethyl]-3-(2-fluoro-ethyl)-urea] | not active | 6.21 | 1.02 | not active | – | – | – | –
3 | O=C(NCCF)NC(Cc1ccccc1)c1ccc(Cl)c(Cl)c1 (centres unmarked) [1-[1-(3,4-dichlorophenyl)-2-phenylethyl]-3-(2-fluoroethyl)urea] | not active | 6.31 | 0.69 | not active | – | – | – | –
4 | O=C(NCCF)NC(Cc1ccccc1F)c1ccncc1 (centres unmarked) [1-(2-fluoro-ethyl)-3-[2-(2-fluoro-phenyl)-1-pyridin-4-yl-ethyl]-urea] | not active | 5.67 | 0.53 | not active | – | – | – | –
5 | O=C(NCCF)NC(Cc1ccccc1)c1cccc2ccccc12 (centres unmarked) [1-(2-fluoroethyl)-3-[1-(1-naphthyl)-2-phenylethyl]urea] | not active | 6.80 | 0.77 | not active | – | – | – | –
6 | Cc1cccc(C(Cc2ccccn2)NC(=O)NCCF)c1 (centres unmarked) [1-(2-fluoro-ethyl)-3-(2-pyridin-2-yl-1-m-tolyl-ethyl)-urea] | not active | 6.87 | 0.87 | not active | – | – | – | –
7 | O=C(NCCF)NC(Cc1cccc(F)c1)c1ccccc1 (centres unmarked) [N-(2-fluoroethyl)-N′-[2-(3-fluorophenyl)-1-phenylethyl]urea] | not active | 7.59 | 0.95 | not active | – | – | – | –
8 | O=C(NCCF)NC(Cc1ccccc1F)c1cccnc1 (centres unmarked) [1-(2-fluoro-ethyl)-3-[2-(2-fluoro-phenyl)-1-pyridin-3-yl-ethyl]-urea] | not active | 6.13 | 0.78 | not active | – | – | – | –
9 | Cc1ccccc1CC(NC(=O)NCCF)c1cccc(Cl)c1 (centres unmarked) | – | 7.57 | 0.94 | not active | 6.10 | 0.38 | – | –
10 | O=C(NCCF)NC(Cc1ccncc1)c1cccc(Cl)c1 (centres unmarked) [1-[1-(3-chloro-phenyl)-2-pyridin-4-yl-ethyl]-3-(2-fluoro-ethyl)-urea] | not active | 7.51 | 1.32 | – | – | – | 6.43 | 0.57
11 | O=C(NCCF)NC(Cc1ccc(F)cc1)c1ccccc1 (centres unmarked) [1-(2-fluoroethyl)-3-[2-(4-fluorophenyl)-1-phenylethyl]urea] | not active | 7.29 | 0.93 | not active | – | – | – | –
12 | Cc1cccc(C(Cc2ccc(F)cc2)NC(=O)NCCF)c1 (centres unmarked) | not active | 7.37 | 0.88 | not active | – | – | – | –
13 | O=C(NCCF)NC(Cc1ccccc1)c1ccccc1F (centres unmarked) | – | 6.99 | 0.79 | – | 7.00 | 0.31 | 5.67 | 0.35
14 | Cc1cccc(CC(NC(=O)NCCF)c2cccc(Cl)c2)c1 (centres unmarked) [1-[1-(3-chloro-phenyl)-2-m-tolyl-ethyl]-3-(2-fluoro-ethyl)-urea] | not active | 8.22 | 0.9 | – | – | – | 7.15 | 0.35
15 | Cc1ccc(C(Cc2ccccc2)NC(=O)NCCF)cc1 (centres unmarked) [1-(2-fluoroethyl)-3-[1-(4-methylphenyl)-2-phenylethyl]urea] | not active | 6.66 | 0.53 | not active | – | – | – | –
16 | Cc1cccc(C(Cc2ccccc2)NC(=O)NCCF)c1 (centres unmarked) [drawing 72, 1-(2-fluoroethyl)-3-[1-(3-methylphenyl)-2-phenylethyl]urea] | not active | 7.53 | 0.91 | not active | – | – | – | –
17 | O=C(NCCF)NC(Cc1cccc(F)c1)c1cccc(C(F)(F)F)c1 (centres unmarked) [1-(2-fluoro-ethyl)-3-[2-(3-fluoro-phenyl)-1-(3-trifluoromethyl-phenyl)-ethyl]-urea] | not active | 7.07 | 0.84 | not active | – | – | – | –
18 | COc1ccc(C(Cc2ccccc2)NC(=O)NCCF)cc1 (centres unmarked) [1-(2-fluoroethyl)-3-[1-(4-methoxyphenyl)-2-phenylethyl]urea] | not active | 5.97 | 0.3 | not active | – | – | – | –
